Tested on: green peach aphid (Myzus persicae)
Test: Myzus test (MYZUPE spray treatment)
Format: in vivo
Conditions: after 5 days; application rate 500 g/ha; spray on Chinese cabbage discs; 100% = all aphids killed
Method: Myzus Test (MYZUPE Spray Treatment) Solvent: 78 parts by weight of acetone and 1.5 parts by weight of dimethylformamide Emulsifier: 0.5 part by weight of alkylaryl polyglycol ether To prepare an active ingredient formulation, 1 part by weight of active ingredient is mixed with the specified amounts of solvent and emulsifier, and the concentrate is diluted to the desired concentration with emulsifier-containing water. Discs of Chinese cabbage (Brassica pekinensis) infested with all stages of the green peach aphid (Myzus persicae) are sprayed with an active ingredient formulation of the desired concentration. After the desired time, the efficacy in % is determined. 100% means that all aphids have been killed; 0% means that no aphids have been killed.

CC(=O)OCC(=CC(=O)OC(C)C)N(C)Cc1ccc(Cl)nc1 [Compound 1]
efficacy in %: 80%
